Data as given in ChEMBL document CHEMBL1134273, “Design, synthesis, and characterization of the antitumor activity of novel ceramide analogues” (J Med Chem, 2001).

Key:
[1] = system: CCRF-CEM; assay: Percentage increase in caspase-3 activity of CCRF-CEM human T-leukemia cells.; format: functional
[2] = system: CCRF-CEM; assay: In vitro growth inhibitory effect in human T-cell acute leukemia cells CCRF-CEM; format: functional, cell-based

Question: `CCCCCCCCCCCCC/C=C/[C@@H](O)[C@H](CO)NC(C)=O` was tested. Which Increase [1] did it give?
Answer: 2.8%

Question: And the IC50 [2]?
Answer: 31.6 µM

Question: `CCCCCCCCCCCCCCc1nc(S)nc(O)c1CC` was tested. Which Increase [1] did it give?
Answer: 1.2%

Question: Which Increase [1] does the source give for `CCCCCCCCCCCCCCc1nc(O)nc(O)c1CC` here?
Answer: 1.7%

Question: Which results are given for `CCCCCCCCCCCCCCc1c(O)nc(S)nc1CC`?
Answer: Increase [1]: 5%; IC50 [2]: 1.7 µM

Question: What does the source list for `CCCCCCCCCCCCCCc1c(O)nc(O)nc1CC`?
Answer: Increase [1]: 8.1%; IC50 [2]: 7.9 µM
